Assay results as given in ChEMBL document CHEMBL5360588, “LC-MS-Guided Isolation of Cyanogripeptides A-C, Cyclolipopeptides with β-Methyl-Leucine Residues, from an Actinoalloteichus cyanogriseus LHW52806” (J Nat Prod, 2023).
In brackets after ≈: the same amount, converted by molar mass.

Legend:
U-937 = assay: Antiproliferative activity against human U-937 cells assessed as inhibition of cell growth measured after 72 by Cell titre-glo assay; assay type: functional, cell-based
A2780 = assay: Antiproliferative activity against human A2780 cells assessed as inhibition of cell growth measured after 72 by Cell titre-glo assay; assay type: functional, cell-based
NB-4 = assay: Antiproliferative activity against human NB4 cells assessed as inhibition of cell growth measured after 72 by Cell titre-glo assay; assay type: functional, cell-based
Raji = assay: Antiproliferative activity against human Raji cells assessed as inhibition of cell growth measured after 72 by Cell titre-glo assay; assay type: functional, cell-based
Daudi = assay: Antiproliferative activity against human Daudi cells assessed as inhibition of cell growth measured after 72 by Cell titre-glo assay; assay type: functional, cell-based
HT-29 = assay: Antiproliferative activity against human HT-29 cells assessed as inhibition of cell growth measured after 72 by Cell titre-glo assay; assay type: functional, cell-based
PC-3 = assay: Antiproliferative activity against human PC-3 cells assessed as inhibition of cell growth measured after 72 by Cell titre-glo assay; assay type: functional, cell-based
PC-9 = assay: Antiproliferative activity against human PC-9 cells assessed as inhibition of cell growth measured after 72 by Cell titre-glo assay; assay type: functional, cell-based
Helicobacter pylori [1] = assay: Antibacterial activity against Helicobacter pylori 26695 assessed as inhibition of bacterial growth measured after 3 days by broth microdilution assay; assay type: functional; details: Helicobacter pylori, 26695, 72 h; time 3 day
Helicobacter pylori [2] = assay: Antibacterial activity against Helicobacter pylori G27 assessed as inhibition of bacterial growth measured after 3 days by broth microdilution assay; assay type: functional; details: G27, 72 h, time 3 day
[3] = system: Mycolicibacterium smegmatis; assay: Antibacterial activity against Mycolicibacterium smegmatis ATCC607 assessed as inhibition of bacterial growth measured after 3 days by broth microdilution assay; assay type: functional; details: ATCC607, 72 h, time 3 day

Row | IC50 (U-937) | IC50 (A2780) | IC50 (Raji) | IC50 (Daudi) | IC50 (HT-29) | IC50 (PC-3) | IC50 (PC-9) | MIC (Helicobacter pylori [1]) | MIC (Helicobacter pylori [2]) | MIC [3] | Structure (SMILES) | IC50 (NB-4)
1 | > 20 µM | > 20 µM | > 20 µM | > 20 µM | > 20 µM | > 20 µM | > 20 µM |  |  |  | CC(C)C[C@H](NC(=O)Cc1ccccc1)C(=O)N[C@H](CCCNC(=N)N)C(=O)N[C@@H]1C(=O)N[C@@H]([C@@H](C)C(C)C)C(=O)NCC(=O)N[C@@H]([C@H](C)C(C)C)C(=O)O[C@@H]1C | > 20 µM
2 | > 20 µM | > 20 µM | > 20 µM | > 20 µM | > 20 µM | > 20 µM | > 20 µM |  |  |  | CC(C)CCC(=O)N[C@@H](CC(C)C)C(=O)N[C@H](CCCNC(=N)N)C(=O)N[C@@H]1C(=O)N[C@@H]([C@@H](C)C(C)C)C(=O)NCC(=O)N[C@@H]([C@H](C)C(C)C)C(=O)O[C@@H]1C | > 20 µM
3 | > 20 µM | > 20 µM | > 20 µM | > 20 µM | > 20 µM | > 20 µM | > 20 µM | 32 mg/L (≈ 39.6 µM) | 32 mg/L (≈ 39.6 µM) | 32 mg/L (≈ 39.6 µM) | CC(C)CCCCC(=O)N[C@@H](CC(C)C)C(=O)N[C@H](CCCNC(=N)N)C(=O)N[C@@H]1C(=O)N[C@@H]([C@@H](C)C(C)C)C(=O)NCC(=O)N[C@@H]([C@H](C)C(C)C)C(=O)O[C@@H]1C | > 20 µM
